According to US10070645B2, “N-cycloalkyl-N-{[2-(1-substitutedcycloalkyl)phenyl]methylene}-(thio)carboxamide derivatives” (BAYER CROPSCIENCE AKTIENGESELLSCHAFT, priority 2013, dated 2018):

Assay: log P by HPLC on a reversed-phase column (C 18), EEC Directive 79/831 Annex V.A8
Type: physicochemical
Conditions: HPLC on reversed-phase column (C 18), 40° C., 0.1% aqueous formic acid and acetonitrile, linear gradient 10% to 90% acetonitrile
Summary of the method: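 Reversed-phase C18 HPLC at 40° C, 0.1% aqueous formic acid/acetonitrile gradient from 10% to 90% acetonitrile. log P derived from retention times by linear interpolation between unbranched alkan-2-ones (3–16 carbons) of known log P.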

Row | logP | SMILES
1 | 4.41 | Cc1ccc(C2(C)CC2(Cl)Cl)c(CN(C(=O)c2c(C(F)F)nn(C)c2F)C2CC2)c1F (racemic) [I.179]
2 | 5.36 | Cc1ccc(C2(CC(C)C)CC2)c(CN(C(=O)c2c(C(F)F)nn(C)c2F)C2CC2)c1 [I.159]
3 | 4.61 | Cn1nc(C(F)F)c(C(=O)N(Cc2c(C3(C)CC3(Cl)Cl)ccc(Cl)c2F)C2CC2)c1Cl (racemic) [I.175]
4 | 4.71 | Cn1nc(C(F)F)c(C(=O)N(Cc2c(C3(C)CC3(Cl)Cl)ccc(Cl)c2Cl)C2CC2)c1F (racemic) [I.173]
5 | 3.87 | Cn1nc(C(F)F)c(C(=O)N(Cc2ccccc2C2(C(F)(F)F)CC2)C2CC2)c1Cl [I.162]

Same assay, conditions: HPLC, reversed-phase column (C 18), 40° C., 0.1% aqueous formic acid and acetonitrile, linear gradient 10% to 90% acetonitrile

Row | logP | SMILES
6 | 4.12 | C=C(C)c1ccc(C2(OC)CC2)c(CN(C(=O)c2c(C(F)F)nn(C)c2F)C2CC2)c1 [I.127]
7 | 3.79 | Cn1nc(C(F)F)c(C(=O)N(Cc2c(F)cccc2C2(C)CC2)C2CC2)c1F [I.089]
8 | 4.51 | Cc1ccc(C2(C)CC2)c(CN(C(=O)c2c(C(F)F)nn(C)c2F)C2(C)CC2)c1 [I.075]
9 | 4.30 | Cn1nc(C(F)F)c(C(=O)N(Cc2cccc(Cl)c2C2(C)CC2)C2CC2)c1F [I.005]
10 | 4.06 | CCOC1(c2ccc(C)cc2CN(C(=O)c2c(C(F)F)nn(C)c2F)C2CC2)CC1 [I.139]
11 | 4.34 | Cn1nc(C(F)F)c(C(=O)N(Cc2cc(C(F)(F)F)ccc2C2(C)CC2)C2CC2)c1F [I.059]
12 | 5.19 | CCCC1(c2ccc(C)cc2CN(C(=O)c2c(C(F)F)nn(C)c2Cl)C2CC2)CC1 [I.131]
13 | 3.70 | Cn1nc(C(F)F)c(C(=O)N(Cc2cc(Cl)ccc2C2(C(F)F)CC2)C2CC2)c1F [I.149]
14 | 4.95 | Cc1ccc(C2(C(C)C)CC2)c(CN(C(=O)c2c(C(F)F)nn(C)c2F)C2CC2)c1 [I.137]
15 | 4.59 | Cc1ccc(C2(C3CC3)CC2)c(CN(C(=O)c2c(C(F)F)nn(C)c2F)C2CC2)c1 [I.134]
16 | 4.24 | Cn1nc(C(F)F)c(C(=O)N(Cc2c(C3(C)CC3)ccc(Cl)c2F)C2CC2)c1F [I.084]

The remaining lines, values behind:

Row | SMILES | logP
17 | Cn1nc(C(F)F)c(C(=O)N(Cc2ccc(-c3ccc(F)c(F)c3)cc2C2(C)CC2)C2CC2)c1F [I.036] | 5.03
18 | Cn1nc(C(F)F)c(C(=O)N(Cc2cccc(-c3ccccc3)c2C2(C)CC2)C2CC2)c1F [I.012] | 4.73
19 | Cn1nc(C(F)F)c(C(=S)N(Cc2cc(F)ccc2C2(C)CC2)C2CC2)c1F [I.068] | 4.49
20 | Cn1nc(C(F)F)c(C(=S)N(Cc2ccccc2C2(C)CC2)C2CC2)c1Cl [I.004] | 4.63
21 | Cn1nc(C(F)F)c(C(=O)N(Cc2c(C3(C)CC3)ccc(Cl)c2Cl)C2CC2)c1F [I.085] | 4.51
22 | CCCC1(c2cc(Cl)ccc2CN(C(=O)c2c(C(F)F)nn(C)c2Cl)C2CC2)CC1 [I.129] | 5.31
23 | COc1ccc(CN(C(=O)c2c(C(F)F)nn(C)c2Cl)C2CC2)c(C2(C)CC2)c1 [I.029] | 3.83
24 | Cn1nc(C(F)F)c(C(=O)N(Cc2ccc(C3=CCOCC3)cc2C2(C)CC2)C2CC2)c1F [I.037] | 3.94
25 | COc1cc(CN(C(=O)c2c(C(F)F)nn(C)c2Cl)C2CC2)c(C2(C)CC2)cc1OC [I.054] | 3.46

Same assay, conditions: reversed-phase HPLC column (C 18); Table 3 (amines of formula II); HPLC C 18, 40° C., 0.1% aqueous formic acid and acetonitrile

Row | chromatographic logP | SMILES
26 | 1.14 | CCC1(c2cccc(F)c2CNC2CC2)CC1 [II.31, N-[2-(1-ethylcyclopropyl)-6-fluorobenzyl]cyclopropanamine]
27 | 1.52 | CCC1(c2ccccc2CNC2CC2)CC1 [II.23, N-[2-(1-ethylcyclopropyl)benzyl]cyclopropanamine]
28 | 1.26 | COc1cc(CNC2CC2)c(C2(C)CC2)cc1OC [II.08, N-[4,5-dimethoxy-2-(1-methylcyclopropyl)benzyl]cyclopropanamine]

Same assay, conditions: reversed-phase HPLC column (C 18); Table 4 (aldehydes of formula IV); HPLC C 18, 40° C., 0.1% aqueous formic acid and acetonitrile

Row | chromatographic logP | SMILES
29 | 4.29 | CCC1(c2cc(C(F)(F)F)ccc2C=O)CC1 [IV.17, 2-(1-ethylcyclopropyl)-4-(trifluoromethyl)benzaldehyde]
30 | 3.76 | CC1(c2ccc(Cl)cc2C=O)CC1 [IV.10, 5-chloro-2-(1-methylcyclopropyl)benzaldehyde]
